Data taken from publication PMC11127902, “Rescuing tri-heteromeric NMDA receptor function: the potential of pregnenolone-sulfate in loss-of-function GRIN2B variants” (Cellular and Molecular Life Sciences: CMLS, 2024).

Assays:
all NMDAR-subtypes = test system: all NMDAR-subtypes; parameters: method as in PMID 24174662; conditions: cited from earlier work
GABAA receptors = test system: GABAA receptors; parameters: method as in PMID 24174662; conditions: cited from earlier work
[1] = test system: synaptic NMDARs in cultured hippocampal neurons; assay: Fraction of extrasynaptic NMDARs with MK-801, hippocampal neurons; assay type: cell-based, rat; conditions: 1 μM MK-801 10 min, 100 μM NMDA
Procedure: Evaluation of the fraction of extrasynaptic NMDARs was done as previously described. Briefly, neurons were initially perfused with extracellular solution (see above) supplemented with 100 μM of NMDA to assess the total (synaptic and extrasynaptic) NMDAR-dependent current. Subsequently, the 100 μM of NMDA was thoroughly washed for 2 min (to refrain from activation of NMDAR by remaining NMDA), then neurons were perfused with the extracellular solution supplemented with 1 μM MK-801 for 10 min to exclusively block synaptic receptors (which are activated by action-potential independent miniature neurotransmission). Extrasynaptic NMDAR-dependent currents were then measured by washing the cells from excess MK-801 for 2 min followed by a second application of 100 μM NMDA. Evaluation of the fraction of the extrasynaptic NMDARs was done by dividing the maximal current remaining after MK-801 application by the current obtained before the MK-801 treatment.

[2] = test system: GluN2B-G689C and GluN2B-G689S variant receptors; parameters: method as in PMID 34212862, PMID 37369021; conditions: cited from earlier work
[3] = molecular target: T1, Mixed di-heteromeric GluN2B-wt/GluN2B-G689S (Rattus norvegicus, UniProt P35439+Q00960, G689S); assay: TEVC in Xenopus oocytes; assay type: cell-based; conditions: 5 mM glutamate
T1 construct: expressed in transfected cells; host or cells: Xenopus laevis oocytes, mRNA injection
From the text: (§1) Aliquots were thawed before each experiment.

[4] = molecular target: T2, Purely di-heteromeric GluN2B-wt (GluN1-1a-wt + GluN2B-wt-C1/C2) (Rattus norvegicus, UniProt P35439+Q00959+Q00960, A876H/F846L/G856D/H848F/K857R/M851T/M860L/Q845K/V861L); assay: TEVC in Xenopus oocytes; assay type: cell-based; conditions: 5 mM glutamate
T2 construct: expressed in transfected cells; host or cells: Xenopus laevis oocytes, mRNA injection
From the text: as §1

[5] = molecular target: T3, Tri-heteromeric GluN2A-wt/GluN2B-G689C (Rattus norvegicus, UniProt P35439+Q00959+Q00960, A876H/F846L/G689C/G856D/H848F/K857R/M851T/M860L/Q845K/V861L); assay type: cell-based; conditions: 5 mM glutamate
T3 construct: expressed in transfected cells; host or cells: Xenopus laevis oocytes, mRNA injection
From the text: as §1

[6] = molecular target: T4, Tri-heteromeric GluN2A-wt/GluN2B-G689S (Rattus norvegicus, UniProt P35439+Q00959+Q00960, A876H/F846L/G689S/G856D/H848F/K857R/M851T/M860L/Q845K/V861L); assay type: cell-based; conditions: 5 mM glutamate
T4 construct: expressed in transfected cells; host or cells: Xenopus laevis oocytes, mRNA injection
From the text: as §1

[7] = molecular target: T5, GluN2A-wt-containing tri-heteromeric receptors (GluN2B wt or variants) (Rattus norvegicus, UniProt P35439+Q00959+Q00960, A876H/F846L/G856D/H848F/K857R/M851T/M860L/Q845K/V861L); assay: TEVC in Xenopus oocytes, all tri-heteromers; assay type: cell-based
T5 construct: expressed in transfected cells; host or cells: Xenopus laevis oocytes, mRNA injection
From the text: as §1

[8] = test system: non-tagged purely di-heteromeric GluN2B-G689C; conditions: purely variant di-heteromers, previous observations; cited from earlier work
[9] = test system: non-tagged purely di-heteromeric GluN2B-G689S; conditions: purely variant di-heteromers, previous observations; cited from earlier work
[10] = molecular target: Mixed di-heteromeric GluN2B-wt/GluN2B-G689C (Rattus norvegicus, UniProt P35439+Q00960, G689C); assay: TEVC in Xenopus oocytes; conditions: 5 mM glutamate
Procedure: (§2) Two electrode voltage clamp (TEVC) recordings were carried out 24–72 h after mRNA injections, as previously described [17, 37]. We use a commercial amplifier (Warner Instruments, USA) and Digitizer (Digidata-1550B; Molecular Devices, USA), controlled by the pClamp10 software (Molecular Devices, USA). Electrode were made by pulling glass capillaries (Narishige, Japan) filled with 3 M KCl, into which we inserted chlorinated silver wires. […] For hERG channel recordings, oocytes were clamped at (− 60) mV for 1 s, followed by a voltage jump to 20 mV for 4 s, and an additional voltage jump to (− 50) mV for 6 s and return to baseline voltage (see Supplementary. 6f), as previously described [53].
(§3) When assessing potentiation by PS, all other solutions also included equal amounts of the DMSO carrier (0.2%).
Electrophysiology data were analyzed by Clampfit 11.2 (Molecular Devices, USA), plotted using GraphPad 8 or SigmaPlot 11(Systat software, Inc.). […] In all TEVC recordings in oocytes, the responses were normalized to current amplitude obtained from that individual cell. […] All data are shown as mean ± SEM. In all experiments N indicates the number of independent experiments, whereas n indicates the number of cells recorded. In each experiment, data underwent normality test prior to statistical assessment. Normally distributed data were assessed for significance by using paired t-test or one-way ANOVA for multiple group comparison and post hoc Tukey test or Dunnett's test. Similarly, in the case of non-normally distributed data significance was assessed by Mann Whitney test or Kruskal–Wallis ANOVA on ranks test followed by Dunn’s multiple comparison post hoc; n.s., non-significant; *p < 0.05; **p < 0.01; ***p < 0.001. […] Leak expression was evaluated by normalizing the maximal current (Imax) of each ER-retained NMDAR composition to Imax of control group (which was recorded in all experiments). Estimation of activation time constant (τ) for potentiated currents by PS, was performed by fitting PS- potentiated currents with a standard single-exponential function, from which we extracted the time constant (τ).

[11] = molecular target: Tri-heteromeric GluN2A-wt/GluN2B-wt (Rattus norvegicus, UniProt P35439+Q00959+Q00960, A876H/F846L/G856D/H848F/K857R/M851T/M860L/Q845K/V861L); assay: TEVC in Xenopus oocytes; conditions: 5 mM glutamate
Procedure: as §2, §3
Electrophysiology data were analyzed by Clampfit 11.2 (Molecular Devices, USA), plotted using GraphPad 8 or SigmaPlot 11(Systat software, Inc.). […] In all TEVC recordings in oocytes, the responses were normalized to current amplitude obtained from that individual cell. […] All data are shown as mean ± SEM. In all experiments N indicates the number of independent experiments, whereas n indicates the number of cells recorded. In each experiment, data underwent normality test prior to statistical assessment. Normally distributed data were assessed for significance by using paired t-test or one-way ANOVA for multiple group comparison and post hoc Tukey test or Dunnett's test. Similarly, in the case of non-normally distributed data significance was assessed by Mann Whitney test or Kruskal–Wallis ANOVA on ranks test followed by Dunn’s multiple comparison post hoc; n.s., non-significant; *p < 0.05; **p < 0.01; ***p < 0.001. […] Leak expression was evaluated by normalizing the maximal current (Imax) of each ER-retained NMDAR composition to Imax of control group (which was recorded in all experiments). […]

GluN2B di-heteromers = test system: GluN2B di-heteromers; parameters: method as in PMID 29682629; conditions: 2.5 μM ifenprodil; cited from earlier work
[12] = test system: tri-heteromers (GluN2A/GluN2B); parameters: method as in PMID 29682629; conditions: 2.5 μM ifenprodil; cited from earlier work
[13] = test system: GluN2A-containing di-heteromers; parameters: method as in PMID 29682629; conditions: 2.5 μM ifenprodil; cited from earlier work
[14] = molecular target: di- or tri-heteromeric NMDA receptors (Rattus norvegicus, UniProt P35439+Q00959+Q00960, A876H/F846L/G856D/H848F/K857R/M851T/M860L/Q845K/V861L); conditions: 0.1-10 μM olanzapine, 5 mM glutamate, 100 μM glycine
From the text: as §1

[15] = molecular target: T6, Purely di-heteromeric GluN2B-G689C (C1/C2) (Rattus norvegicus, UniProt P35439+Q00959+Q00960, A876H/F846L/G689C/G856D/H848F/K857R/M851T/M860L/Q845K/V861L); assay: TEVC in Xenopus oocytes; assay type: cell-based
T6 construct: expressed in transfected cells; host or cells: Xenopus laevis oocytes, mRNA injection
From the text: as §1

[16] = molecular target: T7, Purely di-heteromeric GluN2B-G689S (C1/C2) (Rattus norvegicus, UniProt P35439+Q00959+Q00960, A876H/F846L/G689S/G856D/H848F/K857R/M851T/M860L/Q845K/V861L); assay: TEVC in Xenopus oocytes; assay type: cell-based
T7 construct: expressed in transfected cells; host or cells: Xenopus laevis oocytes, mRNA injection
From the text: as §1

[17] = test system: NMDAR-dependent currents in cultured hippocampal neurons (naive or overexpressing GluN2B-wt, GluN2B-G689C, GluN2B-G689S); assay: Whole cell patch clamp of primary cultured hippocampal neurons; assay type: cell-based, rat
Procedure: Cultures of hippocampal primary neurons were established as previously stated. Briefly, extracted rat neonates (P0) hippocampi were dissociated and plated onto 12 mm poly-D-lysine (Sigma-Aldrich, Cat. #P6407)- treated glass coverslips. Cultures were then maintained in an enriched growth media and grown at 37 °C and 5% CO2. Following five days in-vitro (DIV), growth medium was supplemented with 4 μM cytosine-arabinoside (ARA-C) to suppress glia proliferation. At nine DIV, neurons were co-transfected using the calcium-phosphate method with 2 different plasmids: 0.3 μg DNA of eYFP and 2 μg GluN2B-wt or GluN2B-G689C or GluN2B-G689S. To avoid recordings from cells transfected only with the fluorescent reporter, the ratio between the different plasmids during co-transfection favored the plasmids encoding GluN2B-wt/G689C/G689S. Recordings were performed four to seven days past transfection.
We patched YFP-positive neurons at 13–18 DIV. YFP was excited by X-Cite LED illuminator (Excelitas Technologies). Electrode were made by pulling glass capillaries to resistance of 5–10 MΩ. Electrodes were filled with an intracellular solution containing (in mM): 135 K-gluconate, 10 NaCl, 10 HEPES, 2 MgCl2, 2 Mg^2+-ATP, 1 EGTA, pH adjusted to 7.3 with KOH. Patch-clamp recordings were performed with Axon MultiClamp 700B amplifier and Axon Digidata 1440A acquisition system. In all experiments, recordings were performed using a 10 kHz sampling rate and low pass filter. Neurons were clamped at (-70) mV. […] Cells were recorded for ~ 3 min. For assessing the total NMDAR-dependent current (Imax), neurons were then perfused with extracellular solution (see above) supplemented with 100 μM of NMDA (Alomone labs, Cat #: N-170) for exclusive activation of NMDARs. Potentiation was assessed by perfusing cells with the extracellular solution along with 100 μM NMDA and 100 μM of PS (Cat. #P162) in 0.2% DMSO. […] Cells that didn’t reach steady-state after application of 100 μM NMDA were excluded from analysis. Extent of potentiation by PS was evaluated at steady-state.

[18] = molecular target: T8, Purely wt or mixed di-heteromeric receptors containing GluN2B-subunits (Rattus norvegicus, UniProt P35439+Q00959+Q00960, A876H/F846L/G856D/H848F/K857R/M851T/M860L/Q845K/V861L); assay: TEVC in Xenopus oocytes, wt and mixed di-heteromers; assay type: cell-based; conditions: 100 µM PS
T8 construct: expressed in transfected cells; host or cells: Xenopus laevis oocytes, mRNA injection
From the text: as §1

[19] = test system: GluN2C- and GluN2D-containing di-heteromers; conditions: cited from earlier work
GABAA receptor = test system: GABAA receptor; parameters: method as in PMID 34339523; conditions: cited from earlier work

T5 sequence (Q00959 23-1464, other chains not shown): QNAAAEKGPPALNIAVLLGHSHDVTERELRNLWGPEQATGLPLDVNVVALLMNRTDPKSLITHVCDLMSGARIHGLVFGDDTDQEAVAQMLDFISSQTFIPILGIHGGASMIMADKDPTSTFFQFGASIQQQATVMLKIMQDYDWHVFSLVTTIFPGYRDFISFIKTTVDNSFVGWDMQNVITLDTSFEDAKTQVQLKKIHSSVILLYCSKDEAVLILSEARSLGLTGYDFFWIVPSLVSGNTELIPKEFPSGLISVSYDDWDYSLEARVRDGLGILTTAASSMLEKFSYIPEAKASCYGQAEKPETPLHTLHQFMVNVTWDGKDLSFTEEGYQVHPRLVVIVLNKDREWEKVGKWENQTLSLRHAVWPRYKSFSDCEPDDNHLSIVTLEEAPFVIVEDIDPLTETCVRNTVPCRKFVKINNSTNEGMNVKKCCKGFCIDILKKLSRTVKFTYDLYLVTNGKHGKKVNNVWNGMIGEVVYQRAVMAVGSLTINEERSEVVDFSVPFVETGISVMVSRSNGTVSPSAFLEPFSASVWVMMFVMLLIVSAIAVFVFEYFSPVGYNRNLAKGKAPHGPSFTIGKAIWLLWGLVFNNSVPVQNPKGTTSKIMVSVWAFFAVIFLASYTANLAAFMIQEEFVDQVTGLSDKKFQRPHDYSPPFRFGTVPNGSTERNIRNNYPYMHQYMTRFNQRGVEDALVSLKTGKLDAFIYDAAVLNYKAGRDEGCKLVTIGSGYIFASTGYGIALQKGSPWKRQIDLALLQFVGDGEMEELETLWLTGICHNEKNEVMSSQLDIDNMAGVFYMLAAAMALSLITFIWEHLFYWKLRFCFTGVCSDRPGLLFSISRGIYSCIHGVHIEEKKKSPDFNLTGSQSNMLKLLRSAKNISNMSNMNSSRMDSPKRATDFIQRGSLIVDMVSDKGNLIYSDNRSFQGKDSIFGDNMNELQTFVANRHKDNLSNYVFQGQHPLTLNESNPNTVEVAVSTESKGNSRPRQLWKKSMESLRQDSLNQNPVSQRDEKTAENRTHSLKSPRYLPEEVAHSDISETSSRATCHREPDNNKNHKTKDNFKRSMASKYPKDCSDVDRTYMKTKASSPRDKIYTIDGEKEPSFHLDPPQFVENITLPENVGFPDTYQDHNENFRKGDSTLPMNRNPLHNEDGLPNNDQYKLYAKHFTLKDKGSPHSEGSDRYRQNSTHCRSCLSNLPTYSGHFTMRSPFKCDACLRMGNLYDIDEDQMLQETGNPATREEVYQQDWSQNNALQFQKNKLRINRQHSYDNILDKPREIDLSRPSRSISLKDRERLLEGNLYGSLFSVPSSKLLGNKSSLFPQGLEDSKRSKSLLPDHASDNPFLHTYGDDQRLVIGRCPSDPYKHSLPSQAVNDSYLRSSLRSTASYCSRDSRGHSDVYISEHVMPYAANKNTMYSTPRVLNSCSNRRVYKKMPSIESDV
T5 sequence (Q00960+Q00959 fused with the stated changes, other chains not shown): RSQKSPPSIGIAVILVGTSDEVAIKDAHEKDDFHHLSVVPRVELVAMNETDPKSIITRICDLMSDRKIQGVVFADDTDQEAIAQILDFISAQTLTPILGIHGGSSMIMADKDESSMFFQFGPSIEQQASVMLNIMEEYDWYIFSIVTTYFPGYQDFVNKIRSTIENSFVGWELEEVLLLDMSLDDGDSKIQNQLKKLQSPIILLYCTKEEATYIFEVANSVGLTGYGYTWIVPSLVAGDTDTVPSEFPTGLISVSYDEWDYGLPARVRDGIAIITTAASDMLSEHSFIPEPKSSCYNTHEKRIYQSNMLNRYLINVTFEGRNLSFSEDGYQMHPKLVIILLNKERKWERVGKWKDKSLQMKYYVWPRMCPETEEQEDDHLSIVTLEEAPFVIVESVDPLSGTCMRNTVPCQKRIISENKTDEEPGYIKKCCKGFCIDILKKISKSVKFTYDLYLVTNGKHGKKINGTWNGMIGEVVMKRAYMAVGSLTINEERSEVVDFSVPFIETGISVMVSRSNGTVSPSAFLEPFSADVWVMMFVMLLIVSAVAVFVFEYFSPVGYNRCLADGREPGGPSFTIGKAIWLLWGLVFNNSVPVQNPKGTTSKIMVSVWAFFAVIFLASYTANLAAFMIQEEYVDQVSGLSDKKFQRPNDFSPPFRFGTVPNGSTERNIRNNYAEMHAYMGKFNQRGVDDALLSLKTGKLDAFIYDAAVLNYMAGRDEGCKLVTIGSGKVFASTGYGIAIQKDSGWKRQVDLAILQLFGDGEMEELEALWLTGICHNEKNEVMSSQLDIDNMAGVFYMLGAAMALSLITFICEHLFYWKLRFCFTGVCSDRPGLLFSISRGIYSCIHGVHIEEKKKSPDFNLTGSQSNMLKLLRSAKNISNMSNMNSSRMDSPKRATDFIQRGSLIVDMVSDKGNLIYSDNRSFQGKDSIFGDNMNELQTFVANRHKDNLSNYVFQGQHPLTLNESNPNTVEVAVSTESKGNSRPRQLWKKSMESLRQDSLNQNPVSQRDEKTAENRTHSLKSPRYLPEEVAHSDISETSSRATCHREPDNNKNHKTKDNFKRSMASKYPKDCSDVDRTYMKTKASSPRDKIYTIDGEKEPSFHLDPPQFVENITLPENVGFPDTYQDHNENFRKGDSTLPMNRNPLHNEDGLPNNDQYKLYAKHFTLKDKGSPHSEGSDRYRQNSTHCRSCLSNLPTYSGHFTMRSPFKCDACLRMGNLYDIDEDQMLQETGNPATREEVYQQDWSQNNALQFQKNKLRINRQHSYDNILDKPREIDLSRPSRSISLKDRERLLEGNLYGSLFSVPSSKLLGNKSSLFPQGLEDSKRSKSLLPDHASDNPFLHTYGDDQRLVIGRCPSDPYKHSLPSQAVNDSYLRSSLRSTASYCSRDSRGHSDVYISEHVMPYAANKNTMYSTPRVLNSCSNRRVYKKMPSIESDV
T7 sequence (Q00960+Q00959 fused with the stated changes, other chains not shown): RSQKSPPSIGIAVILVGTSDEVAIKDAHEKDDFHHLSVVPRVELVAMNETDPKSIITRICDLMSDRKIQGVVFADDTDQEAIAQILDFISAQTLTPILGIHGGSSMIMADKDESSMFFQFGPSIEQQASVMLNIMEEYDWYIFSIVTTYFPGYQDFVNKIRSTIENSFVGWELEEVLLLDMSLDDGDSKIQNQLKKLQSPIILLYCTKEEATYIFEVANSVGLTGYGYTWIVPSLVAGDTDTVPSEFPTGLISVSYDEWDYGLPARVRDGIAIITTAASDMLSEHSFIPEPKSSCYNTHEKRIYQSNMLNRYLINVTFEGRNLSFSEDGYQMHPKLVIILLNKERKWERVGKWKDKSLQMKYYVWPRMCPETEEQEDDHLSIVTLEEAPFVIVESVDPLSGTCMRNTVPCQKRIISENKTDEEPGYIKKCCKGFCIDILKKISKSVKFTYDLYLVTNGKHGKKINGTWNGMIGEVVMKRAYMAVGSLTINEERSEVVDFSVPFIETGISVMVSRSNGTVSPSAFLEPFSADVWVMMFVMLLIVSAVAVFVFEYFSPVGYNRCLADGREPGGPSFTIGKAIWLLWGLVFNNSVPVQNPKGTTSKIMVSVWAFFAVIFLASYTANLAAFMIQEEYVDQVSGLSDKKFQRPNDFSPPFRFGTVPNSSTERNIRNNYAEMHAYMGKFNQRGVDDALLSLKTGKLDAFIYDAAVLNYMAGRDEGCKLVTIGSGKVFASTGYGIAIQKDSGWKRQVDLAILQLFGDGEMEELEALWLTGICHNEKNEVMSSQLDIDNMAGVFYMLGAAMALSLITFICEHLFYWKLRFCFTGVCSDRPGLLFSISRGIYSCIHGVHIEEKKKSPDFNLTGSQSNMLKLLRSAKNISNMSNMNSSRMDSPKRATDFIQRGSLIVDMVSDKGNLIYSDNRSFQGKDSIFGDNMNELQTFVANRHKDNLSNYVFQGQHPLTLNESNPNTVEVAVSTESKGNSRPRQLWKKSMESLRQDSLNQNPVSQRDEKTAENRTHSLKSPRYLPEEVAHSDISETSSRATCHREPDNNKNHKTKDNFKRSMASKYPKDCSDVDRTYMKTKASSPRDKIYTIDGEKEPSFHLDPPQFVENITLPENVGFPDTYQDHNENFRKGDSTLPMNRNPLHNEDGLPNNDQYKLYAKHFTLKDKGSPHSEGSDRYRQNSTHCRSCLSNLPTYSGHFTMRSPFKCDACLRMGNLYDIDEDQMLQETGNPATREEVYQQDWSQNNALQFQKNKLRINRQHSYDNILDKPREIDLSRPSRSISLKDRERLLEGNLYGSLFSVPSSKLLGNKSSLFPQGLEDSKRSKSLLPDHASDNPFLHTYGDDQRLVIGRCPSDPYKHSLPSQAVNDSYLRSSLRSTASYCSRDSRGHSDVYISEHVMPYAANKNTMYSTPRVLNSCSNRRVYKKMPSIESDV

Molecule: CC(C)[C@@H](O)CC[C@@H](C)[C@H]1CC[C@H]2[C@@H]3CC=C4C[C@@H](O)CC[C@]4(C)[C@H]3CC[C@]12C [24(S)-HC, 24(S)-hydroxycholesterol]
- potentiation by 24(S)-HC (all NMDAR-subtypes): can potentiate all NMDAR-subtypes alike
- effect of 24(S)-HC (GABAA receptors): no known effect

Molecule: C[C@]12N[C@H](Cc3ccccc31)c1ccccc12 [MK-801]
- extrasynaptic fraction (current remaining after MK-801) ([1]; neurons overexpressing GluN2B-wt): 38%
- fraction of remaining current after MK-801 ([1]; neurons overexpressing the variants): ~ 50%
- block by MK-801 [2]: efficiently and potently blocks both variant receptors

Molecule: NCCCNCCCCNCCCN [Spermine, spermine]
- Spermine Potentiation (Fold change) ([3]; 200 μM spermine, pH 7.3): 1.61 ± 0.03 (N = 2, n = 24) Fold change
- Spermine Potentiation (Fold change) ([4]; 200 μM spermine, pH 7.3): 1.97 ± 0.56 (N = 3, n = 25) Fold change
- Spermine Potentiation (Fold change) ([5]; 200 μM spermine, pH 7.3): 0.70 ± 0.03 n.s (N = 1, n = 10) Fold change
- Spermine Potentiation (Fold change) ([6]; 200 μM spermine, pH 7.3): 0.75 ± 0.02 n.s (N = 2, n = 19) Fold change
- response to spermine ([7]; 200 μM spermine, pH 7.3, 5 mM glutamate): non-responsive
- inhibition by spermine (fold) ([7]; all tri-heteromers examined, 200 μM spermine): 0.75 fold
- response to spermine [8]: poorly responsive
- response to spermine [9]: inhibited
- Spermine Potentiation (Fold change) ([10]; 200 μM spermine, pH 7.3): 1.78 ± 0.51 (N = 2, n = 20) Fold change
- Spermine Potentiation (Fold change) ([11]; 200 μM spermine, pH 7.3): 0.73 ± 0.02 (N = 2, n = 12) Fold change

Molecule: CC(C(O)c1ccc(O)cc1)N1CCC(Cc2ccccc2)CC1 (stereo not drawn) [ifenprodil]
- expected inhibition by ifenprodil (GluN2B di-heteromers): ~ 85%
- expected inhibition by ifenprodil [12]: < 40%
- expected inhibition by ifenprodil [13]: < 10%

Molecule: Cc1cc2c(s1)Nc1ccccc1N=C2N1CCN(C)CC1 [olanzapine]
- direct effect of olanzapine on NMDAR currents [14]: no evidence for any direct effect

Molecule: pregnenolone-sulfate [PS]
- PS Potentiation (Fold change) ([3]; 100 μM PS): 2.99 ± 0.10 n.s (N = 3, n = 20) Fold change
- potentiation by PS (fold increase) ([15]; 100 µM PS): ~ fourfold
- PS Potentiation (Fold change) ([15]; 100 μM PS, 5 mM glutamate): 3.96 ± 0.14 (N = 3, n = 18) Fold change
- potentiation by PS (fold increase) ([16]; 100 µM PS): ~ fivefold
- PS Potentiation (Fold change) ([16]; 100 μM PS, 5 mM glutamate): 4.68 ± 0.19 (N = 3, n = 23) Fold change
- PS Potentiation (Fold change) ([4]; 100 μM PS): 3.03 ± 0.13 (N = 3, n = 16) Fold change
- PS Potentiation (Fold change) ([5]; 100 μM PS): 2.12 ± 0.10 n.s (N = 3, n = 13) Fold change
- PS Potentiation (Fold change) ([6]; 100 μM PS): 2.02 ± 0.06 n.s (N = 2, n = 13) Fold change
- effect of PS on Imax ([17]; 100 μM PS with 100 μM NMDA, 50 μM glycine, all groups): increased Imax of neurons from all groups
- effect of PS on NMDAR-current without added NMDA ([17]; 100 μM PS, no NMDA added): enhanced the overall NMDAR-current
- extent of potentiation (fold) by PS ([17]; 100 μM PS, neurons overexpressing the variants vs naive or GluN2B-wt): significantly larger
- potentiation by PS (fold increase) ([7]; 100 µM PS, all tri-heteromeric types, wt or GluN2B variants): ~ twofold
- potentiation by PS (fold increase) [18]: ~ threefold
- mode of action of PS [19]: negative allosteric modulator (NAM)
- mode of action of PS (GABAA receptor): negative allosteric modulator (NAM)
- PS Potentiation (Fold change) ([10]; 100 μM PS): 2.78 ± 0.15 n.s. (N = 3, n = 13) Fold change
- PS Potentiation (Fold change) ([11]; 100 μM PS): 1.87 ± 0.04 (N = 4, n = 30) Fold change
